This experiment has as its target T1, PCSK9 (Homo sapiens, UniProt Q8NBP7).
T1 construct: host or cells: exogenous PCSK9 protein added to HepG2 cells
The experiment in a line: LDL-uptake assay (BODIPY-LDL) in HepG2 cells with added PCSK9. It is filed as cell-based. Particulars: inhibitors 50 μM preincubated with 10 μg/mL PCSK9 for 30 min, BODIPY-LDL 10 μg/mL, quintuplicate. Here is the method: LDL-uptake assay was performed in quintuplicate following a published procedure with some modifications. HepG2 cells were seeded into 96-well plate at a density of 3×10^4 cells/well in DMEM with 10% FBS medium (Sigma-Aldrich). After a period of 24 h, the medium was aspirated and cells were washed with PBS twice. Cells were treated with 10% lipoprotein-deficient serum (Gemini) in DMEM and incubated for another 24 h. After washing cells with PBS twice, cells were incubated 2 h with either 100 μL of Pep2-8 (30 μM), inhibitors at various concentrations (50 μM), or negative control (DMSO), which were preincubated with 10 μg/mL PCSK9 in 10% lipoprotein-deficient DMEM at 0.5% DMSO level for 30 min prior. A positive control was also performed, in a similar fashion but in the absence of PCSK9. BODIPY-LDL (10 μg/mL, Invitrogen) was added to each well and cells were incubated for another 3 h. Cells were washed three times with PBS, and fluorescent intensity was measured on Synergy H4 plate reader (Biotek) with excitation and emission wavelength at 488 and 520 nm, respectively.

SMILES strings stand for the structures.

T1 sequence (Q8NBP7 153-692): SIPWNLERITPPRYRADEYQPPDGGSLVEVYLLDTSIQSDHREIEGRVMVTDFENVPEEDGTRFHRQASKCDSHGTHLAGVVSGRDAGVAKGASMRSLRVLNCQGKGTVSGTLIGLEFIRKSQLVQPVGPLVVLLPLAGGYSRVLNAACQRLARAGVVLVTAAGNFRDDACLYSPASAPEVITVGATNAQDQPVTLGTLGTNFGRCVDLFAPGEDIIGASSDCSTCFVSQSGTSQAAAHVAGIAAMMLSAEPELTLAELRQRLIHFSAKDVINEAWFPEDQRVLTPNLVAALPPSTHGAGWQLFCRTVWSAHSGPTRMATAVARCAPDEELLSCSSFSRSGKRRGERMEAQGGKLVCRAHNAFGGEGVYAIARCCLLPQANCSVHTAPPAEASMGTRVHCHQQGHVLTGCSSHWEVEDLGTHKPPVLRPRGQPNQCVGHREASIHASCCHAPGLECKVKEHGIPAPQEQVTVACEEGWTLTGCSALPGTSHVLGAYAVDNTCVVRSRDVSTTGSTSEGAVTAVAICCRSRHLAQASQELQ
T1 sequence (Q8NBP7 31-152 partner limits assumed): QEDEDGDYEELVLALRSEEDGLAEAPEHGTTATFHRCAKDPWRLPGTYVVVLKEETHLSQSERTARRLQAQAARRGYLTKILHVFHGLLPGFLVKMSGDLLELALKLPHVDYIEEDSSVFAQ

`CC(C)C[C@H](C(=O)N1CCN([C@@H](CC(N)=O)C(=O)N[C@@H](CCCNC(=N)N)C(=O)NC2CCOC2=O)CC1)N1C(=O)N[C@@H](CC(=O)O)C1=O` (stereo partly shown) [KB2234]: the activity at 50 µM was 8.7 ± 5.9%.

Take `CC(C)C[C@H](C(=O)N1CCN([C@@H](CC(N)=O)C(=O)N[C@@H](CCCNC(=N)N)C(=O)NCCC(=O)O)CC1)N1C(=O)N[C@@H](CC(=O)O)C1=O` [KB2274]: the activity at 50 µM is 13.5 ± 4.3%.

Take `N=C(N)NCCC[C@@H](NC(=O)[C@H](CC(=O)O)N1CCN(C(=O)[C@H](CC(N)=O)N2C(=O)N[C@@H](CCC(N)=O)C2=O)CC1)C(=O)NCCC(=O)O` [KB2275]: the activity at 50 µM amounted to 8.6 ± 1.5%.

With `CC(C)C[C@@H](C(=O)N[C@H](CCCNC(=N)N)C(=O)NCCC(=O)O)N1CCN(C(=O)[C@H](CS)N2C(=O)N[C@H](CC(N)=O)C2=O)CC1` [KB2276], the activity at 50 µM came out at 19 ± 4.7%.

The record behind these values is patent US10577357B2, “Inhibitors of LDLR-PCSK9 protein-protein interaction and methods of their use” (The Texas A&M University System, priority 2016, dated 2020).
